# Where a name gives a salt, the structure may show the parent alone.
# How the values were obtained:
# Type in all cases: physicochemical
# [1] = Kinetic solubility in water and bio-relevant media (SGF, FaSSIF, FeSSIF) at 37° C.; details: for S: Solubility / FC: Form change: 37° C.; for S: Solubility: calculated by freeform; for FC: Form change: residual solids by XRPD
# Procedure: Add 4 mL of medium (H2O, SGF, FaSSIF and FeSSIF). • Rolled at 37° C. (˜25 rpm). Sampling at 1, 2, 4 and 24 hrs. • At each time-point, sampled 0.8 mL of solution or suspension into a centrifuge tube prior to centrifugation (12000 rpm, 37° C., 5 min) and filtration through 0.45 μm PTFE membrane. • Tested pH and concentration for the filtrate. Analyze residual solids by XRPD.
# 0.1 g of NaCl and 0.05 g of Triton X-100 were weighed into a 50-mL volumetric flask. Purified water was added to dissolve the solid. 67.5 μL HCl (38%, 12M) was added after the solid was dissolved completely. pH was then adjusted to 1.8 using HCl (1 M) or NaOH (1 M). Purified water was added to the volume.
# (§1) 0.17 g of anhydrous NaH2PO4, 0.021 g of NaOH and 0.31 g of NaCl were weighed into a 50-mL volumetric flask. ˜48 mL purified water was added to dissolve the solid. pH was adjusted to 6.5 using 1M HCl or 1M NaOH. Purified water was then added to the volume. 0.11 g of SIF powder was added into the volumetric flask.
# as §1, with “0.41 mL” for “0.17 g”, “acetic acid, 0.20” for “anhydrous NaH2PO4, 0.021”, “0.59” for “0.31”, “5.0” for “6.5”, “0.56” for “0.11”
# [2] = Hygroscopicity by DVS at 25° C.
# Procedure: DVS was measured via a SMS (Surface Measurement Systems) DVS Intrinsic. The relative humidity at 25° C. were calibrated against deliquescence point of LiCl, Mg(NO3)2 and KCl.
# [3] = Solid state stability at 25° C./60% RH and 40° C./75% RH for 1 week; details: for HPLC peak Area, RRT 1.00: main peak
# Procedure: Each sample was added into a glass vial, sealed by parafilm with several holes, and kept under tested conditions. After one week, samples were taken for XRPD and HPLC purity test.
structure (smiles),measurement,setting,value
N#Cc1ccc(COc2cccc(C3CCN(Cc4nc5ccc(C(=O)O)cc5n4Cc4cncs4)CC3)n2)c(F)c1 [Potassium salt Type A],S: Solubility,"[1]; FaSSIF, 1 hr",24 µg/mL
same,FC: Form change,"[1]; FaSSIF, 1 hr",No
same,S: Solubility,"[1]; FaSSIF, 2 hrs",21 µg/mL
same,FC: Form change,"[1]; FaSSIF, 2 hrs",No
same,S: Solubility,"[1]; FaSSIF, 4 hrs",22 µg/mL
same,FC: Form change,"[1]; FaSSIF, 4 hrs",No
same,S: Solubility,"[1]; FaSSIF, 24 hrs",29 µg/mL
same,FC: Form change,"[1]; FaSSIF, 24 hrs",Yes
same,S: Solubility,"[1]; FeSSIF, 1 hr",38 µg/mL
same,FC: Form change,"[1]; FeSSIF, 1 hr",No
same,S: Solubility,"[1]; FeSSIF, 2 hrs",35 µg/mL
same,FC: Form change,"[1]; FeSSIF, 2 hrs",No
same,S: Solubility,"[1]; FeSSIF, 4 hrs",34 µg/mL
same,FC: Form change,"[1]; FeSSIF, 4 hrs",No
same,S: Solubility,"[1]; FeSSIF, 24 hrs",21 µg/mL
same,FC: Form change,"[1]; FeSSIF, 24 hrs",Yes
same,S: Solubility,"[1]; H2O, 1 hr",920 µg/mL
same,FC: Form change,"[1]; H2O, 1 hr",No
same,S: Solubility,"[1]; H2O, 2 hrs",1700 µg/mL
same,FC: Form change,"[1]; H2O, 2 hrs",Yes
same,S: Solubility,"[1]; H2O, 4 hrs",3800 µg/mL
same,FC: Form change,"[1]; H2O, 4 hrs",Yes
same,S: Solubility,"[1]; H2O, 24 hrs",4900 µg/mL
same,FC: Form change,"[1]; H2O, 24 hrs",Yes
same,S: Solubility,"[1]; SGF, 1 hr",280 µg/mL
same,FC: Form change,"[1]; SGF, 1 hr",Yes
same,S: Solubility,"[1]; SGF, 2 hrs",69 µg/mL
same,FC: Form change,"[1]; SGF, 2 hrs",Yes
same,S: Solubility,"[1]; SGF, 4 hrs",39 µg/mL
same,FC: Form change,"[1]; SGF, 4 hrs",Yes
same,S: Solubility,"[1]; SGF, 24 hrs",50 µg/mL
same,FC: Form change,"[1]; SGF, 24 hrs",Yes
same,form change of residual solids (XRPD) after solubility test,"[1]; all the media (H2O, SGF, FaSSIF, FeSSIF), after 24 hrs",form change was observed
same,water uptake (DVS),[2]; 25° C./80% RH,0.62%
same,hygroscopicity,"[2]; DVS, 25° C.",slightly hygroscopic
same,Water uptake at 25° C./80% RH,"[2]; DVS, 25° C./80% RH",0.62 wt %
same,For change after DVS,[2]; XRPD after DVS test,No
same,form change after DVS test (XRPD),[2]; after DVS test,no form change
same,"HPLC peak Area, RRT 0.70","[3]; 25° C./60% RH, 1 week",0.06%
same,"HPLC peak Area, RRT 0.73","[3]; 25° C./60% RH, 1 week",0.15%
same,"HPLC peak Area, RRT 0.83","[3]; 25° C./60% RH, 1 week",1.80%
same,"HPLC peak Area, RRT 0.90","[3]; 25° C./60% RH, 1 week",0.09%
same,"HPLC peak Area, RRT 0.99","[3]; 25° C./60% RH, 1 week",0.06%
same,"HPLC peak Area, RRT 1.05","[3]; 25° C./60% RH, 1 week",0.27%
same,"HPLC peak Area, RRT 1.10","[3]; 25° C./60% RH, 1 week",0.67%
same,"HPLC peak Area, RRT 1.11","[3]; 25° C./60% RH, 1 week",0.05%
same,"HPLC peak Area, RRT 1.12","[3]; 25° C./60% RH, 1 week",0.06%
same,"HPLC peak Area, RRT 1.15","[3]; 25° C./60% RH, 1 week",0.21%
same,"HPLC peak Area, RRT 1.34","[3]; 25° C./60% RH, 1 week",0.10%
same,"HPLC peak Area, RRT 1.00","[3]; 25° C./60% RH, 1 week",96.47%
same,Form change,[3]; 25° C./60% RH/Open/1 week,No
same,Purity,[3]; 25° C./60% RH/Open/1 week,96.47 Area %
same,solid-state stability: form change and purity decrease,"[3]; 25° C./60% RH/open and 40° C./75% RH/open, 1 week",no form change or significant purity decrease
same,"HPLC peak Area, RRT 0.70","[3]; 40° C./75% RH, 1 week",0.05%
same,"HPLC peak Area, RRT 0.73","[3]; 40° C./75% RH, 1 week",0.14%
same,"HPLC peak Area, RRT 0.83","[3]; 40° C./75% RH, 1 week",1.78%
same,"HPLC peak Area, RRT 0.90","[3]; 40° C./75% RH, 1 week",0.09%
same,"HPLC peak Area, RRT 0.99","[3]; 40° C./75% RH, 1 week",<0.05%
same,"HPLC peak Area, RRT 1.05","[3]; 40° C./75% RH, 1 week",0.28%
same,"HPLC peak Area, RRT 1.10","[3]; 40° C./75% RH, 1 week",0.66%
same,"HPLC peak Area, RRT 1.11","[3]; 40° C./75% RH, 1 week",0.06%
same,"HPLC peak Area, RRT 1.12","[3]; 40° C./75% RH, 1 week",0.06%
same,"HPLC peak Area, RRT 1.15","[3]; 40° C./75% RH, 1 week",0.22%
same,"HPLC peak Area, RRT 1.34","[3]; 40° C./75% RH, 1 week",0.07%
same,"HPLC peak Area, RRT 1.00","[3]; 40° C./75% RH, 1 week",96.58%
same,Form change,[3]; 40° C./75% RH/Open/1 week,No
same,Purity,[3]; 40° C./75% RH/Open/1 week,96.58 Area %
same,"HPLC peak Area, RRT 0.70",[3]; Initial,0.05%
same,"HPLC peak Area, RRT 0.73",[3]; Initial,0.16%
same,"HPLC peak Area, RRT 0.83",[3]; Initial,1.84%
same,"HPLC peak Area, RRT 0.90",[3]; Initial,0.09%
same,"HPLC peak Area, RRT 0.99",[3]; Initial,0.05%
same,"HPLC peak Area, RRT 1.05",[3]; Initial,0.27%
same,"HPLC peak Area, RRT 1.10",[3]; Initial,0.70%
same,"HPLC peak Area, RRT 1.11",[3]; Initial,0.05%
same,"HPLC peak Area, RRT 1.12",[3]; Initial,0.06%
same,"HPLC peak Area, RRT 1.15",[3]; Initial,0.22%
same,"HPLC peak Area, RRT 1.34",[3]; Initial,0.10%
same,Purity,[3]; Initial,96.41 Area %
same,"HPLC peak Area, RRT 1.00",[3]; Initial,96.41%

# Reference: patent US20240360122A1, “POLYMORPHIC FORMS AND SALTS OF A GLP-1R AGONIST” (Terns (Suzhou) Biotechnology Co., Ltd., priority 2023, published 2024)
